Experimental data taken from patent US11071300B2, “Pesticidally active pyrazole derivatives” (SYNGENTA PARTICIPATIONS AG, priority 2017, dated 2021).

Assays:
Type in all cases: in vivo
Spodoptera littoralis = Spodoptera littoralis (Egyptian cotton leaf worm) leaf disc test; details: foliar, 72 h, application rate 200 ppm, cotton leaf discs sprayed, L1 larvae, 3 days after infestation, read-out: control (at least one of mortality, anti-feedant effect, growth inhibition)
Summary of the method: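 Cotton leaf discs on agar were sprayed with aqueous dilutions of 10′000 ppm DMSO stocks, dried and infested with five L1 larvae. Mortality, anti-feedant effect and growth inhibition were scored against untreated samples 3 days after infestation. Control = any of these higher than untreated.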

Plutella xylostella = Plutella xylostella (diamond back moth) artificial diet test; details: 120 h, application rate 200 ppm, artificial diet, L2 larvae, 5 days after infestation, read-out: control (mortality and growth inhibition)
Description: Plutella xylostella (Diamond Back Moth):
(§1) 24-well microtiter plates with artificial diet were treated with aqueous test solutions prepared from 10′000 ppm DMSO stock solutions by pipetting. After drying, the plates were infested with L2 larvae (10 to 15 per well). The samples were assessed for mortality and growth inhibition in comparison to untreated samples 5 days after infestation.

Diabrotica Balteata = assay: Diabrotica balteata (corn root worm) maize sprout test; details: 96 h, application rate 200 ppm, maize sprouts sprayed, L2 larvae, 4 days after infestation, read-out: control (mortality and growth inhibition)
Description: Diabrotica Balteata, (Corn Root Worm)
as §1, with “Maize sprouts, placed on an agar layer in 24-well” for “24-well”, “plates” for “plates with artificial diet”, “spraying.” for “pipetting.”, “(6” for “(10”, “10” for “15”, “4” for “5”

Thrips tabaci = Thrips tabaci (onion thrips) leaf disc test; details: foliar, 144 h, application rate 200 ppm, sunflower leaf discs sprayed, mixed ages, 6 days after infestation, read-out: control (mortality)
Description: Thrips tabaci (Onion Thrips):
(§2) Sunflower leaf discs were placed on agar in 24-well microtiter plates and sprayed with aqueous test solutions prepared from 10′000 ppm DMSO stock solutions. After drying the leaf discs were infested with a thrips population of mixed ages. The samples were assessed for mortality 6 days after infestation.

Tetranychus urticae = Tetranychus urticae (two-spotted spider mite) leaf disc test; details: foliar, 192 h, application rate 200 ppm, bean leaf discs sprayed, 8 days after infestation, read-out: control (mortality on mixed population, mobile stages)
Description: Tetranychus urticae (Two-Spotted Spider Mite):
as §2, with “Bean” for “Sunflower”, “discs” for “discs were placed”, “were” for “and”, “mite” for “thrips”, “on mixed population (mobile stages) 8” for “6”

Euschistus heros = Euschistus heros (neotropical brown stink bug) soybean leaf test; details: 120 h, application rate 200 ppm, soybean leaves sprayed, N2 nymphs, 5 days after infestation, read-out: control (mortality and growth inhibition)
Description: Euschistus heros (Neotropical Brown Stink Bug):
Soybean leaves on agar in 24-well microtiter plates were sprayed with aqueous test solutions prepared from 10′000 ppm DMSO stock solutions. After drying the leaves were infested with N2 nymphs. The samples were assessed for mortality and growth inhibition in comparison to untreated samples 5 days after infestation.

Myzus persicae = Myzus persicae (green peach aphid) leaf disc test; details: foliar, 144 h, application rate 200 ppm, sunflower leaf discs sprayed, mixed ages, 6 DAT, read-out: control (mortality)
Description: Myzus persicae (Green Peach Aphid):
Sunflower leaf discs were placed on agar in a 24-well microtiter plate and sprayed with test solutions at an application rate of 200 ppm. After drying, the leaf discs were infested with an aphid population of mixed ages. After an incubation period of 6 DAT, samples were checked for mortality.

CCN(C(=O)c1cc(-c2cc(-c3c(C(F)(F)F)c(OS(=O)(=O)C(F)(C(F)(F)F)C(F)(F)F)nn3C)no2)ccc1Cl)C1CC1 [Compound 35, [5-[5-[4-chloro-3-[cyclopropyl(ethyl)carbamoyl]phenyl]isoxazol-3-yl]-1-methyl-4-(trifluoromethyl)pyrazol-3-yl] 1,1,1,2,3,3,3-heptafluoropropane-2-sulfonate]
≥ 80%: percent control (mortality, anti-feedant effect or growth inhibition) at 200 ppm (Spodoptera littoralis) | mortality at 200 ppm (Plutella xylostella) | mortality at 200 ppm (Diabrotica Balteata) | mortality at 200 ppm (Thrips tabaci) | mortality at 200 ppm (Tetranychus urticae) | mortality at 200 ppm (Euschistus heros) | mortality at 200 ppm (Myzus persicae)

CN(C(=O)c1cc(-c2cnn(-c3c(C(F)(F)F)c(OS(=O)(=O)C(F)(C(F)(F)F)C(F)(F)F)nn3C)c2)ccc1Cl)C1(C#N)CC1 [Compound 18, [5-[4-[4-chloro-3-[(1-cyanocyclopropyl)-methyl-carbamoyl]phenyl]pyrazol-1-yl]-1-methyl-4-(trifluoromethyl)pyrazol-3-yl] 1,1,1,2,3,3,3-heptafluoropropane-2-sulfonate]
≥ 80%: percent control (mortality, anti-feedant effect or growth inhibition) at 200 ppm (Spodoptera littoralis) | mortality at 200 ppm (Plutella xylostella) | mortality at 200 ppm (Diabrotica Balteata) | mortality at 200 ppm (Thrips tabaci) | mortality at 200 ppm (Tetranychus urticae) | mortality at 200 ppm (Euschistus heros) | mortality at 200 ppm (Myzus persicae)

Cn1nc(OS(=O)(=O)C(F)(C(F)(F)F)C(F)(F)F)c(C(F)(F)F)c1-n1cc(-c2ccc(Cl)c(C(=O)NC3(C#N)CC3)c2)cn1 [Compound 2, [5-[4-[4-chloro-3-[(1-cyanocyclopropyl)carbamoyl]phenyl]pyrazol-1-yl]-1-methyl-4-(trifluoromethyl)pyrazol-3-yl] 1,1,1,2,3,3,3-heptafluoropropane-2-sulfonate]
≥ 80%: percent control (mortality, anti-feedant effect or growth inhibition) at 200 ppm (Spodoptera littoralis) | mortality at 200 ppm (Plutella xylostella) | mortality at 200 ppm (Diabrotica Balteata) | mortality at 200 ppm (Thrips tabaci) | mortality at 200 ppm (Tetranychus urticae) | mortality at 200 ppm (Euschistus heros) | mortality at 200 ppm (Myzus persicae)

CN(C(=O)c1cc(-c2cc(-c3c(C(F)(F)F)c(OS(=O)(=O)C(F)(C(F)(F)F)C(F)(F)F)nn3C)no2)ccc1Cl)C1(C#N)CC1 [Compound 37, [5-[5-[4-chloro-3-[(1-cyanocyclopropyl)-methyl-carbamoyl]phenyl]isoxazol-3-yl]-1-methyl-4-(trifluoromethyl)pyrazol-3-yl] 1,1,1,2,3,3,3-heptafluoropropane-2-sulfonate]
≥ 80%: percent control (mortality, anti-feedant effect or growth inhibition) at 200 ppm (Spodoptera littoralis) | mortality at 200 ppm (Plutella xylostella) | mortality at 200 ppm (Diabrotica Balteata) | mortality at 200 ppm (Thrips tabaci) | mortality at 200 ppm (Tetranychus urticae) | mortality at 200 ppm (Euschistus heros) | mortality at 200 ppm (Myzus persicae)

CN(C(=O)c1cc(-c2cnn(-c3c(C(F)(F)F)c(OS(=O)(=O)C(F)(C(F)(F)F)C(F)(F)F)nn3C)c2)cnc1Cl)C1(C#N)CC1 [Compound 25, [5-[4-[6-chloro-5-[(1-cyanocyclopropyl)-methyl-carbamoyl]-3-pyridyl]pyrazol-1-yl]-1-methyl-4-(trifluoromethyl)pyrazol-3-yl] 1,1,1,2,3,3,3-heptafluoropropane-2-sulfonate]
≥ 80%: percent control (mortality, anti-feedant effect or growth inhibition) at 200 ppm (Spodoptera littoralis) | mortality at 200 ppm (Plutella xylostella) | mortality at 200 ppm (Diabrotica Balteata) | mortality at 200 ppm (Thrips tabaci) | mortality at 200 ppm (Tetranychus urticae) | mortality at 200 ppm (Euschistus heros) | mortality at 200 ppm (Myzus persicae)

COCC(=O)N(C(=O)c1cc(-c2cnn(-c3c(C(F)(F)F)c(OS(=O)(=O)C(F)(C(F)(F)F)C(F)(F)F)nn3C)c2)ccc1Cl)C1(C#N)CC1 [Compound 62, [5-[4-[4-chloro-3-[(1-cyanocyclopropyl)-(2-methoxyacetyl)carbamoyl]phenyl]pyrazol-1-yl]-1-methyl-4-(trifluoromethyl)pyrazol-3-yl] 1,1,1,2,3,3,3-heptafluoropropane-2-sulfonate]
≥ 80%: percent control (mortality, anti-feedant effect or growth inhibition) at 200 ppm (Spodoptera littoralis) | mortality at 200 ppm (Plutella xylostella) | mortality at 200 ppm (Diabrotica Balteata) | mortality at 200 ppm (Thrips tabaci) | mortality at 200 ppm (Tetranychus urticae) | mortality at 200 ppm (Euschistus heros) | mortality at 200 ppm (Myzus persicae)

Cn1nc(OS(=O)(=O)C(F)(C(F)(F)F)C(F)(F)F)c(C(F)(F)F)c1-n1cc(-c2ccc(Cl)c(C(=O)NC3CC3)c2)cn1 [Compound 5, [5-[4-[4-chloro-3-(cyclopropylcarbamoyl)phenyl]pyrazol-1-yl]-1-methyl-4-(trifluoromethyl)pyrazol-3-yl] 1,1,1,2,3,3,3-heptafluoropropane-2-sulfonate]
≥ 80%: percent control (mortality, anti-feedant effect or growth inhibition) at 200 ppm (Spodoptera littoralis) | mortality at 200 ppm (Plutella xylostella) | mortality at 200 ppm (Diabrotica Balteata) | mortality at 200 ppm (Thrips tabaci) | mortality at 200 ppm (Tetranychus urticae) | mortality at 200 ppm (Euschistus heros) | mortality at 200 ppm (Myzus persicae)

CCC(=O)N(C(=O)c1cc(-c2cnn(-c3c(C(F)(F)F)c(OS(=O)(=O)C(F)(C(F)(F)F)C(F)(F)F)nn3C)c2)ccc1Cl)C1(C#N)CC1 [Compound 54, [5-[4-[4-chloro-3-[(1-cyanocyclopropyl)-propanoyl-carbamoyl]phenyl]pyrazol-1-yl]-1-methyl-4-(trifluoromethyl)pyrazol-3-yl] 1,1,1,2,3,3,3-heptafluoropropane-2-sulfonate]
≥ 80%: percent control (mortality, anti-feedant effect or growth inhibition) at 200 ppm (Spodoptera littoralis) | mortality at 200 ppm (Plutella xylostella) | mortality at 200 ppm (Diabrotica Balteata) | mortality at 200 ppm (Thrips tabaci) | mortality at 200 ppm (Tetranychus urticae) | mortality at 200 ppm (Euschistus heros) | mortality at 200 ppm (Myzus persicae)

COCN(C(=O)c1cc(-c2cnn(-c3c(C(F)(F)F)c(OS(=O)(=O)C(F)(C(F)(F)F)C(F)(F)F)nn3C)c2)ccc1Cl)C1(C#N)CC1 [Compound 48, [5-[4-[4-chloro-3-[(1-cyanocyclopropyl)-(methoxymethyl)carbamoyl]phenyl]pyrazol-1-yl]-1-methyl-4-(trifluoromethyl)pyrazol-3-yl] 1,1,1,2,3,3,3-heptafluoropropane-2-sulfonate]
≥ 80%: percent control (mortality, anti-feedant effect or growth inhibition) at 200 ppm (Spodoptera littoralis) | mortality at 200 ppm (Plutella xylostella) | mortality at 200 ppm (Diabrotica Balteata) | mortality at 200 ppm (Thrips tabaci) | mortality at 200 ppm (Tetranychus urticae) | mortality at 200 ppm (Euschistus heros) | mortality at 200 ppm (Myzus persicae)

Cn1nc(OS(=O)(=O)C(F)(C(F)(F)F)C(F)(F)F)c(C(F)(F)F)c1-n1cc(-c2ccc(Cl)c(C(=O)N(CC#N)C3(C#N)CC3)c2)cn1 [Compound 49, [5-[4-[4-chloro-3-[(1-cyanocyclopropyl)-(cyanomethyl)carbamoyl]phenyl]pyrazol-1-yl]-1-methyl-4-(trifluoromethyl)pyrazol-3-yl] 1,1,1,2,3,3,3-heptafluoropropane-2-sulfonate]
≥ 80%: percent control (mortality, anti-feedant effect or growth inhibition) at 200 ppm (Spodoptera littoralis) | mortality at 200 ppm (Plutella xylostella) | mortality at 200 ppm (Diabrotica Balteata) | mortality at 200 ppm (Thrips tabaci) | mortality at 200 ppm (Tetranychus urticae) | mortality at 200 ppm (Euschistus heros) | mortality at 200 ppm (Myzus persicae)

Cn1nc(OS(=O)(=O)C(F)(C(F)(F)F)C(F)(F)F)c(C(F)(F)F)c1-n1cc(-c2ccc(Cl)c(C(=O)N(C(=O)C(C)(C)C)C3(C#N)CC3)c2)cn1 [Compound 59, [5-[4-[4-chloro-3-[(1-cyanocyclopropyl)-(2,2-dimethylpropanoyl)carbamoyl]phenyl]pyrazol-1-yl]-1-methyl-4-(trifluoromethyl)pyrazol-3-yl] 1,1,1,2,3,3,3-heptafluoropropane-2-sulfonate]
≥ 80%: percent control (mortality, anti-feedant effect or growth inhibition) at 200 ppm (Spodoptera littoralis) | mortality at 200 ppm (Plutella xylostella) | mortality at 200 ppm (Diabrotica Balteata) | mortality at 200 ppm (Thrips tabaci) | mortality at 200 ppm (Tetranychus urticae) | mortality at 200 ppm (Euschistus heros) | mortality at 200 ppm (Myzus persicae)
